Measurements from patent publication US20240130675A1, “Methods for Treating Autism Spectrum Disorder” (The General Hospital Corporation, priority 2021, published 2024).

Key:
[1] = system: youth with ASD; test: 12-week randomized, double-blind, placebo-controlled trial: efficacy on autism related impairments (SRS-2, CGI-I, ABC-Social Withdrawal, CY-BOCS-PDD); assay type: in vivo, human; parameters: SRS-SCI / SRS-Social Cognition / SRS-Social Awareness / SRS-Social Motivation / SRS-Social Communication / SRS-Autistic Mannerisms / ABC-Social Withdrawal: scale not given here; conditions: for ABC-Social Withdrawal / CY-BOCS-PDD / SRS-Autistic Mannerisms / SRS-SCI / SRS-Social Awareness / SRS-Social Cognition / SRS-Social Communication / SRS-Social Motivation / SRS-Total: MEM [N = 16]
Experimental: This study was a 12-week, randomized, double-blind, placebo-controlled, parallel group clinical trial of memantine in youth with ASD. Youth with ASD who met the eligibility criteria were randomized to receive either memantine or placebo during the course of the 12-week trial. Participants underwent multimodal MRI scans prior to and upon completion of the 12-week trial. Participants were assessed weekly during the titration phase (baseline to Week 4) and at midpoint (Week 6), Week 9, and completion (Week 12) during the maintenance phase. At each study visit, safety and efficacy were assessed by administering measures of efficacy (CGI, GAF), tolerability (assessing treatment-emergent AEs), and safety (vital signs, including weight). At baseline, midpoint, and endpoint (completion/early termination) severity of autism was assessed by administering measures of autism severity (SRS-2, ABC-SW, CY-BOCS-PDD) and associated psychopathology (ADHD-RS, CDRS-R, CASI-ANX).
Eligible participants were of both sexes, aged 8 to 17 years, with intact intellectual ability, as established by a full-scale intelligence quotient of 85 or greater based on the Vocabulary and Matrix Reasoning subtests of the Wechsler Abbreviated Scale of Intelligence-Second Edition (WASI-II (Wechsler, 2011)). Participants were required to meet DSM-IV-TR/5 diagnostic criteria for autism, as established by clinical diagnostic evaluation and to have at least moderate severity of ASD, as determined by a total raw score of 85 or greater on the informant-rated Social Responsiveness Scale-Second Edition (SRS-2; (Constantino et al., 2003)) and a score of 4 or greater on the clinician-rated National Institute of Mental Health (NIMH) Clinical Global Impression (CGI) severity scale (CGI-S; (National Institute of Mental Health, 1985)).
In this 12-week, randomized, double-blind, placebo-controlled, parallel group clinical, ASD participants were randomized in a 1:1 ratio to receive memantine or placebo. An independent statistician created a computer-generated randomization schedule, using stratified randomization by sex (male vs. female) and race (Caucasian vs. Non-Caucasian). The Clinical Trials Pharmacy at MGH dispensed the study medication (memantine and placebo) based on the randomization schedule. The randomization schedule remained confidential throughout the study.
Study medication was titrated to the maximum daily dose during the first 4 weeks of the trial (dose titration phase) and from there on, subjects were maintained on maximum achieved dose until the end of the trial (dose maintenance phase). Titration of the study medication was guided by a flexible titration schedule which allowed for slower titration or maintaining at a lower dose, as guided by study clinician judgment of tolerability. Study medication was administered in divided dosages. Study medication was initiated at 2.5 mg/day (raised to 5 mg/day on day 4) and was up-titrated by 5 mg/week to a maximum dose of 20 mg/day.
The efficacy of memantine for the treatment of autism related impairments was assessed by the informant-rated Social Responsiveness Scale—Second Edition (SRS-2) as continuous outcome measure, and by the clinician-rated CGI-I subscale, as categorical outcome measure. Treatment response criteria for this trial was defined as≥25% improvement on the SRS-2 and a score of 2 or 1 on the CGI-I subscale, i.e., “much” or “very much improved.”
Additional treatment response of autism impairment was examined for the ASD subdomains by assessing change with treatment in the severity of the SRS-2 subscales and the Children's Yale Brown Obsessive Compulsive Scale modified for PDD (CY-BOCS-PDD) (Goodman et al., 1986 (Rev 89); Scahill et al., 2006) to assess change with treatment in the ritualistic behaviors associated with ASD. […]

[2] = system: adults with HF-ASD; test: Uncontrolled (pilot) trial of memantine in adults with HF-ASD (Joshi et al., 2016); assay type: in vivo, human; conditions: estimate from pilot study, used for sample size
Excerpt: Memantine is a moderate-affinity, non-competitive, NMDA receptor antagonist that is approved by the U.S. Food and Drug Administration (FDA) for the treatment of moderate to severe Alzheimer's disease (U.S. FDA, 2003).
We determined a priori that we would need a sample size of 40 participants in total (20 participants per group) to detect this difference in response rate at a 2-sided significance level of 0.05 with 80% power. Our final sample consisted of 16 participants in the memantine group and 19 participants in the placebo group with response data. With this sample size, we had […] power to detect the aforementioned difference in response rates.

## CC12CC3CC(C)(C1)CC(N)(C3)C2 [MEM, memantine]
[1]; Cohen's d, MEM vs PBO
  SRS-Social Awareness, ES [95% CI]: 0.74
  SRS-Social Cognition, ES [95% CI]: 0.83
[1]; BL (baseline)
  ABC-Social Withdrawal: 12.5 ± 8.6
  CY-BOCS-PDD: 2.9 ± 5.4
  SRS-Autistic Mannerisms: 21.1 ± 5.9
  SRS-SCI: 93.5 ± 17.0
  SRS-Social Awareness: 14.3 ± 3.0
  SRS-Social Cognition: 20.0 ± 3.9
  SRS-Social Communication: 40.1 ± 8.1
  SRS-Social Motivation: 19.1 ± 6.9
  SRS-Total: 114.5 ± 21.3
[1]; EP (endpoint)
  ABC-Social Withdrawal: 5.6 ± 5.4
  CY-BOCS-PDD: 1.9 ± 4.0
  SRS-Autistic Mannerisms: 13.4 ± 3.8
  SRS-SCI: 63.8 ± 20.0
  SRS-Social Awareness: 10.7 ± 3.0
  SRS-Social Cognition: 13.7 ± 4.5
  SRS-Social Communication: 27.0 ± 10.4
  SRS-Social Motivation: 12.4 ± 5.7
  SRS-Total: 77.0 ± 22.5
[1]; MD (mean difference)
  ABC-Social Withdrawal: −6.9 ± 7.0
  CY-BOCS-PDD: −0.9 ± 2.1
  SRS-Autistic Mannerisms: −7.8 ± 6.4
  SRS-SCI: −29.8 ± 22.2
  SRS-Social Awareness: −3.6 ± 3.9
  SRS-Social Cognition: −6.3 ± 5.6
  SRS-Social Communication: −13.0 ± 9.4
  SRS-Social Motivation: −6.8 ± 5.4
  SRS-Total: −37.6 ± 27.9
[1]; Odds Ratio, MEM vs PBO
  ≥25% ↓↓SRS + CGI-I ≤ 2, ES [95% CI]: 4.82
[2]
  Estimated share of participants on memantine responding to treatment: 57%
